Tests used:
mouse TRPV3 = molecular target: T1, mouse TRPV3 (Mus musculus, UniProt Q8K424); assay: cell-based; conditions: for EC50: EC50 of 2-APB for TRPV3 activation; for TRPV3 currents response, of control level: 100 µM 2-APB, –60 mV, after sensitization
T1 sequence (Q8K424 1-791): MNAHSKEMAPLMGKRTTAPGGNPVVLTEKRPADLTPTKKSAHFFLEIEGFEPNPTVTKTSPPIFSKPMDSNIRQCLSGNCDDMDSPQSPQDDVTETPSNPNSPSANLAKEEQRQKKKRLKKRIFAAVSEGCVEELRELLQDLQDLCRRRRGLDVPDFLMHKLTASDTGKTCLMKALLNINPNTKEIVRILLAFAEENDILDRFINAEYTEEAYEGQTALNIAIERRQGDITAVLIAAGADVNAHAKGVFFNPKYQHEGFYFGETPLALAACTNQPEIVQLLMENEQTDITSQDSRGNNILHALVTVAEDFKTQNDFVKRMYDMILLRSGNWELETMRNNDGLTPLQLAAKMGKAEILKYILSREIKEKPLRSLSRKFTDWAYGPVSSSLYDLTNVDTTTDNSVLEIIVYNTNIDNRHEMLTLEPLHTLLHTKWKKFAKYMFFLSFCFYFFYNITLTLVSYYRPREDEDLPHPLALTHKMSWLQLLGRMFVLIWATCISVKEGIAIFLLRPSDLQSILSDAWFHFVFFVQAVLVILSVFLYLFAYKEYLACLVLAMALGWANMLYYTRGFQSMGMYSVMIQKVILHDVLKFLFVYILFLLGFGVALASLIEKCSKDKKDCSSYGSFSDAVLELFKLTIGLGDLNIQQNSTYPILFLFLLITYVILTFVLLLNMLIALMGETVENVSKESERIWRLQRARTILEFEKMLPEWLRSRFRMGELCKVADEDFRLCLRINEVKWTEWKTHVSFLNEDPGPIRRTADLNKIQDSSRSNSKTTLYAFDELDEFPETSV
From the text: The WT mouse TRPV3 (mTRPV3), human TRPV3 (hTRPV3), rat TRPV1, rat TRPV2, rat TRPM8, and mouse TRPA1 cDNAs were generously provided by Dr. Feng Qin (State University of New York at Buffalo, Buffalo, USA). The GFP-mTRPV3 WT and the mutants (mTRPV3-G573S and mTRPV3-G573C) in pcDNA4/TO vector were gifts from Dr. Michael X Zhu (The University of Texas Health Science Center at Houston, Houston, USA). The WT fTRPV3 was kindly provided by Dr. Makoto Tominaga (Department of Physiological Sciences, SOKENDAI, Okazaki, Japan). All mutations were made using the overlap-extension polymerase chain reaction method as previously described ([Tian et al., 2019]). The resulting mutations were then verified by DNA sequencing. HEK 293T and T-Rex 293 cells were grown in Dulbecco’s modified Eagle’s medium (DMEM, Thermo Fisher Scientific, MA) containing 4.5 mg/ml glucose, 10% heat-inactivated fetal bovine serum (FBS), 50 units/ml penicillin, and […], and were incubated at 37°C in a humidified incubator gassed with 5% CO2. For T-Rex 293, blasticidin S (10 μg/ml) was also included. Cells grown into ~80% confluence were transfected with the desired DNA constructs using either the standard calcium phosphate precipitation method or lipofectamine 2000 (Invitrogen, Carlsbad, CA) following the protocol provided by the manufacturer. Transfected HEK 293T cells were reseeded on 12 mm round glass coverslips coated by poly-L-lysine. Experiments took place ~12–24 hr after transfection.
Conventional whole-cell and excised patch-clamp recording methods were used. For the recombinant expressing system, green fluorescent EGFP was used as a surface marker for gene expression. Recording pipettes were pulled from borosilicate glass capillaries (World Precision Instruments) and fire-polished to a resistance between 2 and 4 MΩ when filled with internal solution containing (in mM) 140 CsCl, 2.0 MgCl2, 5 EGTA, and 10 HEPES, pH 7.4 (adjusted with CsOH). Bath solution contained (in mM): 140 NaCl, 5 KCl, 3 EGTA, and 10 HEPES, pH 7.4 adjusted with NaOH. For recordings in keratinocytes, the bath saline consisted of (in mM) 140 NaCl, 5 KCl, 2 MgCl2, 2 CaCl2, 10 glucoses, and 10 HEPES, pH 7.4 adjusted with NaOH, and the pipette solution contained (in mM) 140 CsCl, 5 EGTA, and 10 HEPES, pH 7.3 adjusted with CsOH. For single-channel recordings, the pipette solution and bath solution were symmetrical and contained (in mM) 140 NaCl, 5 KCl, 3 EGTA, and 10 HEPES, pH 7.4. Isolated cells were voltage clamped and held at –60 mV using an EPC10 amplifier with the Patchmaster software (HEKAElectronics, Lambrecht, Germany). For a subset of recordings, currents were amplified using an Axopatch 200B amplifier (Molecular Devices, Sunnyvale, CA) and recorded through a BNC-2090/MIO acquisition system (National Instruments, Austin, TX) using QStudio developed by Dr. Feng Qin at State University of New York at Buffalo. Whole-cell recordings were typically sampled at 5 kHz and filtered at 1 kHz, and single-channel recordings were sampled at 25 kHz and filtered at 10 kHz. The compensation of pipette series resistance and capacitance was compensated using the built-in circuitry of the amplifier (>80%) to reduce voltage errors. Exchange of external solution was performed using a gravity-driven local perfusion system. […] Dyclonine hydrochloride, MTSET and carvacrol were purchased from MCE (MedChemExpress). Unless otherwise noted, all chemicals were purchased from Sigma (Millipore Sigma, St. Louis, MO). Water-insoluble reagents were dissolved in pure ethanol or DMSO to make a stock solution and diluted into the recording solution at the desired final concentrations before the experiment. […] In the scratching behavior experiments, carvacrol was first dissolved in 10% ethanol and then diluted in normal saline before administration.

[1] = tested on: T-Rex 293 cells expressing TRPV3 G573S; assay: Cell death analysis by flow cytometry (propidium iodide), cells expressing G573S mutant; assay type: cell-based, Homo sapiens
Protocol: (§1) T-Rex 293 cells were grown in DMEM containing 4.5 mg/ml glucose, 10% (vol/vol) FBS, 50 units/ml penicillin, 50 μg/ml streptomycin, and blasticidin S (10 μg/ml), and were incubated at 37°C in a humidified incubator gassed with 5% CO2. Transfections were performed in wells of a 24-well plate using lipofectamine 2000 (Invitrogen). […] Expression of GFP fluorescence detected by an epifluorescence microscope was used as an indicator of gene expression. After treatments with the compounds for 12 hr, cells were collected, washed twice with PBS, resuspended, and then dyed with propidium iodide (PI, Thermo Fisher Scientific) in the dark according to the manufacturer’s instructions. The membrane integrity of the cells was assessed using a BD FACSCelesta flow cytometer equipped with BD Accuri C6 software (BD Biosciences, USA).

[2] = tested on: T-Rex 293 cells expressing TRPV3 G573C; assay: Cell death analysis by flow cytometry (propidium iodide), cells expressing G573C mutant; assay type: cell-based, Homo sapiens
Protocol: as §1

[3] = dyclonine (50 μM) or 2-APB (30 μM) alone, averaged from seven experiments
[4] = dyclonine (50 μM) added to 2-APB (30 μM), averaged

Structure (SMILES) | initial TRPV3 current (mouse TRPV3; 100 μM 2-APB without dyclonine) | EC50 (mouse TRPV3; with 3 μM dyclonine) | EC50 (mouse TRPV3; without dyclonine, after full sensitization) | repetitions to reach full sensitization level (mouse TRPV3; repeated 100 μM 2-APB alone) | Hill coefficient nH of 2-APB activation (mouse TRPV3; with 3 μM dyclonine) | Hill coefficient nH of 2-APB activation (mouse TRPV3; without dyclonine) | cell death ratio [1, 3] | cell death ratio [2, 3] | IC50 (mouse TRPV3) | TRPV3 currents response, of control level (mouse TRPV3; 5 µM dyclonine) | TRPV3 currents response, of control level (mouse TRPV3; 10 µM dyclonine) | initial TRPV3 current (mouse TRPV3; 100 μM 2-APB with 5 μM dyclonine) | Hill coefficient nH of inhibition of TRPV3 currents (mouse TRPV3; 2-APB-evoked, WT mouse TRPV3) | inhibition at 10 µM (mouse TRPV3; HEK-293T, read-out: inhibition of TRPV3 current (reduction in current amplitude)) | repetitions to reach the current level of full sensitization (mouse TRPV3; repeated 100 μM 2-APB with 5 μM dyclonine) | cell death ratio [1, 4] | cell death ratio [2, 4]
NCCOB(c1ccccc1)c1ccccc1 [2-APB, 2-aminoethoxydiphenyl borate] | 86.43 ± 5.9 pA/pF | 22 ± 0.86 µM | 22.93 ± 0.02 µM | approximately eight | 1.7 ± 0.1 | 1.6 ± 0.1 | 53.60% ± 5.88% | 47.91% ± 5.54% | – | – | – | – | – | – | – | – | –
CCCCOc1ccc(C(=O)CCN2CCCCC2)cc1 [dyclonine] | – | – | – | – | – | – | 12.45% ± 2.54% | 14.98% ± 4.40% | 3.2 ± 0.24 µM | 30% ± 2% | 15% ± 3% | 31.12 ± 2.86 pA/pF | 2.2 ± 0.32 | 87% | ~ 16 repetitions | 17.68% ± 5.66% | 13.85% ± 2.49%

Source: PMC8112869, “Therapeutic inhibition of keratinocyte TRPV3 sensory channel by local anesthetic dyclonine” (eLife, 2021)
